The test system of series [1] is osteoclasts. The series can be described thus: Osteoclast formation and bone resorption on bone slices pre-incubated with compound. The series is classed as cell-based, mouse. How it is done:
FIG. 5A is a scheme of an exemplary synthesis of compound BP-Btz1. FIG. 5B is a series of images of bone slices pre-incubated with 1 μM BP-Btz1, Btz, or bisphosphonate (BP) overnight. Drug solutions were removed and bone slices were washed with PBS extensively. […] (BM) cells from UB^G76V-GFP mice were cultured on bone slices in the presence of M-CSF and RANKL for 9 days. Top images (a): GFP^+ cells were observed under a fluorescence microscope and GFP signal intensity was quantified. Middle images (b): bone slices were fixed and subjected to TRAP staining for osteoclasts (OCs). OC #/slice were counted. Bottom images (c): cells were removed from slices. Toluidine blue staining was performed and pit areas/slice were counted. FIG. 5C is a series of images of murine BM cells cultured and stained for ALP. FIG. 5D is a series of images of human MSCs cultured and stained for ALP. Murine BM cells and human MSCs were cultured in the OB-inducing medium plus different concentrations of BP-Btz1 or Btz for 4 or 6 days, respectively. Cells were stained for ALP. The ALP^+ areas were measured by Image J. *P<0.05 vs. Btz-treated cells.
As a control, the effects of the non-bioactive bisphosphonate (BP) that would be released in the bone compartment were also studied. […] In a pivotal in vitro study, this BP-Btz1 and Btz were independently incubated with bone slices for 24 hours, after which the bone slices were removed and placed in culture wells with fresh media along with osteoclast precursors. […]
1. […] Following proteasome inhibitor administration, Ub^G76V accumulates and GFP fluorescence is readily apparent. GFP^+ OCs were detected at 4 and 8 hrs after adding Btz to OC cultures, which disappeared at 24 hrs. […] The number and area of OCs and resorption pits are assessed. The appearance, intensity and distribution of GFP^+ cells on bone slices and plastic surrounding bone slices during OC formation is observed and recorded. […] Area of ALP^+ and mineralized bone nodule, and the expression levels of OB marker genes (ALP, osteocalcin, Runx2) are measured. […]

Series [2] concerns OVX mice. The series can be described thus: OVX-induced bone loss in C57/B6 mice. It counts as in vivo, mouse. The method, then:
Ovariectomy was carried out in 10-week-old female C57/B6 mice.
Histomorphometry (FIG. 20A) and biomechanical testing (FIG. 20B) were also done. These experiments were done using C57/B6 mice, 10 w, treatment at 4 w post-OVX for 4 w.

Series [3] deals with bone resorption and formation. Kind of series: In vivo dose-response experiments on bone resorption and formation. The source says:
In vitro testing is also used to examine analogues of BP-Btz1.

The test system of series [4] is Ub-proteins. Kind of series: Duration of ubiquitinization effect (FIG. 18). The conditions noted are these: compared with Btz.
Series [5] relates to thymus. The conditions noted are these: mice, cited from earlier work.
The mark [6] stands for this setting: OVX C57/B6 mice, treatment at 4 w post-OVX for 4 w.

Entries after “also recorded” stand apart in the source; their conditions may differ.

As for `CC(C)C[C@H](NC(=O)[C@H](Cc1ccccc1)NC(=O)c1cnccn1)B1OCCN(CCOC(=O)NC(P(=O)(O)O)P(=O)(O)O)CCO1` [BP-Btz1], in series [1], the osteoclast function result was “maintains its bioactivity on inhibition of OCs; also recorded: inhibits osteoclast function”. In series [1] (bone slices pre-incubated with compound (1 μM, 24 hours), removed, then osteoclast precursors in fresh media), the “Formation and activity of osteoclasts on pre-incubated bone slices” value is reported as “significantly reduced”. The “anti-osteoclast activity on bone slices” value in series [1] (in vitro studies on bone slices, compared with Btz) is given as “anti-osteoclast activity equivalent to than Btz itself”. Also, in series [2] (setting [6]), the bone mass entry was “increases bone mass and strength in OVX mice as effectively as Btz”; the bone strength entry is “increases bone mass and strength in OVX mice as effectively as Btz”. In series [2] (OVX mice), the OVX-induced bone loss entry is listed as “reduces OVX-induced bone loss” and the osteoblast differentiation result was “more potently promotes osteoblast differentiation”. In series [2] (cells from OVX mice), the CFU-ALP colony formation entry is “increases CFU-ALP colony formation” and the CFU-F colony formation entry was “increases CFU-F colony formation”. For the same molecule, in series [3], the bone resorption result is on record as “inhibits bone resorption”. In series [3] (compared with Btz alone), the bone formation entry is “stimulates formation at doses lower than effective doses of Btz alone”. Further, the ubiquitinization effect result in series [4] is on record as “more sustained ubiquitinization effect than Btz”.
Turning to `CC(C)C[C@H](NC(=O)[C@H](Cc1ccccc1)NC(=O)c1cnccn1)B(O)O` [Btz, [(1R)-3-methyl-1-[[(2S)-1-oxo-3-phenyl-2[(pyrazinylcarbonyl)amino]propyl]amino]butyl] boronic acid], in series [5] (Btz injection), the splenocytes numbers entry was “not”; the “total and CD4+ and CD8+ thymocyte numbers” value is listed as “markedly decreases”. Further, in series [5] (as early as 3 days after administration), the “number of T cells in the thymus” value was “significantly reduces”.

The values are drawn from patent US11497813B2, “Bortezomib conjugates and methods using same” (Frank EBETINO et al., priority 2015, dated 2022).
